Reference: article PMC7037682, “Herb–Drug Interaction of Red Ginseng Extract and Ginsenoside Rc with Valsartan in Rats” (Molecules, 2020)

Assays:
[1] = set-up: method as in PMID 25297453, PMID 22139693, PMID 26725427; settings: rats ref 23, 39, 40; cited from earlier work
[2] = Literature rifampin plasma concentration in rats after oral 20 mg/kg; assay type: in vivo, rat; settings: oral rifampin 20 mg/kg, from literature plasma concentration and protein binding ref 23, 39, 40
OATP1B3 [3] = target: T1, OATP1B3 (Homo sapiens, UniProt Q9NPD5); assay: Inhibition of OATP1B3-mediated valsartan uptake in HEK293-OATP1B3 cells; assay type: cell-based; set-up: host or cells: HEK293; settings: 5 μM valsartan, 5 min
T1 sequence (Q9NPD5 1-702): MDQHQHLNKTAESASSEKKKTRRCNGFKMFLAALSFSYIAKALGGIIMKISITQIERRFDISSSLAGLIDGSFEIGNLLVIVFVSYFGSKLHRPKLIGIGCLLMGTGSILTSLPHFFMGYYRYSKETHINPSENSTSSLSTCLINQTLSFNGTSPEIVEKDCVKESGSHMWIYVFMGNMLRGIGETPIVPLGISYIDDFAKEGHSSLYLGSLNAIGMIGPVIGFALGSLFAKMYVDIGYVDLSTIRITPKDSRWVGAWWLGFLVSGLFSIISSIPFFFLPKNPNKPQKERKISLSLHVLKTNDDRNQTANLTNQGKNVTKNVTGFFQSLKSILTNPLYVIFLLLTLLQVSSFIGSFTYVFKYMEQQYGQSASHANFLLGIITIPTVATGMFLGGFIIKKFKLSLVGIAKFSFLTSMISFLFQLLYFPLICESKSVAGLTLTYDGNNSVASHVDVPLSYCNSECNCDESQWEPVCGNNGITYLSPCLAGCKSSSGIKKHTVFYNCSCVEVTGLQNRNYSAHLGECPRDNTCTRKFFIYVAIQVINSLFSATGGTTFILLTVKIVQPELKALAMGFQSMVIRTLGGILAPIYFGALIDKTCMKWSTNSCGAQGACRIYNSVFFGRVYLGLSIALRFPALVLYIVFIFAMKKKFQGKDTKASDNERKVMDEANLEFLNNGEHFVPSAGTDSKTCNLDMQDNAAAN
Method: (§1) Transporter mediated uptake of probe substrates or valsartan was calculated by subtracting the uptake rate of probe substrates or valsartan into HEK293-mock cells from that into HEK293 cells expressing respective transporters.

OATP1B3 [4] = target: T1, OATP1B3; assay: Inhibition of OATP1B3-mediated [3H]estradiol-17β-D-glucuronide uptake in HEK293-OATP1B3 cells
Method: (§2) HEK293 cells overexpressing the OCT1, OCT2, OAT1, OAT3, OATP1B1, and OATP1B3 transporters (HEK293-OCT1, -OCT2, -OAT1, -OAT3, -OATP1B1, and -OATP1B3, respectively) and HEK293-mock cells (Corning Life Sciences; Woburn, MA, USA) were used and characterized as previously described.
(§3) HEK293 cells overexpressing drug transporters and HEK293-mock cells were seeded in poly-D-lysine-coated 96-well plates at a density of 10^5 cells/well and were cultured in DMEM supplemented with 10% FBS, 5 mM non-essential amino acids, and 2 mM sodium butyrate in a humidified atmosphere with 8% CO2 at 37 °C.
(§4) To examine the effects of ginsenosides and typical inhibitors on transporter activity, aliquots (100 μL) of HBSS containing the probe substrate and ginsenosides or typical inhibitors were added to the cells after aspirating pre-incubated HBSS. The concentrations and probe substrates were as follows: 0.1 μM [^3H]MPP^+ for OCT1 and OCT2, 0.1 μM [^3H]PAH for OAT1, 0.1 μM [^3H]ES for OAT3 and OATP1B1, and 0.1 μM [^3H]EG for OATP1B3. […] Then the uptake of probe substrates into HEK293-mock cells and HEK293-OCT1, -OCT2, -OAT1, -OAT3, -OATP1B1, and -OATP1B3 cells in the presence and absence of typical inhibitor or each ginsenoside with previously described concentration range was measured for 5 min. Immediately after placing the plates on ice, the cells were washed three times with 100 μL of ice-cold HBSS, followed by lysing with 50 μL of 10% SDS solution and mixing with 150 μL of Optiphase cocktail solution (Perkin Elmer Inc., Boston, MA, USA). The radioactivity of the probe substrates in the cells was determined using a liquid scintillation counter.
(§5) In the inhibition studies, the uptake rate of substrate by HEK293 cells overexpressing the respective transporters was used as the control (100%) and the uptake rate of substrates in the presence of typical inhibitors or ginsenosides expressed as a percentage of the control. The inhibition data were fitted to an inhibitory effect model using Sigma plot (version 10.0; Systat Software Inc., San Jose, CA, USA). IC50 value indicated the half-maximal inhibitory concentration of the inhibitor.

[5] = set-up: method as in PMID 25297453, PMID 22139693, PMID 26725427; settings: rats, cited from earlier work
OATP1B1 [6] = target: T2, OATP1B1 (Homo sapiens, UniProt Q9Y6L6); assay: Inhibition of OATP1B1-mediated [3H]estrone-3-sulfate uptake in HEK293-OATP1B1 cells
T2 sequence (Q9Y6L6 1-691): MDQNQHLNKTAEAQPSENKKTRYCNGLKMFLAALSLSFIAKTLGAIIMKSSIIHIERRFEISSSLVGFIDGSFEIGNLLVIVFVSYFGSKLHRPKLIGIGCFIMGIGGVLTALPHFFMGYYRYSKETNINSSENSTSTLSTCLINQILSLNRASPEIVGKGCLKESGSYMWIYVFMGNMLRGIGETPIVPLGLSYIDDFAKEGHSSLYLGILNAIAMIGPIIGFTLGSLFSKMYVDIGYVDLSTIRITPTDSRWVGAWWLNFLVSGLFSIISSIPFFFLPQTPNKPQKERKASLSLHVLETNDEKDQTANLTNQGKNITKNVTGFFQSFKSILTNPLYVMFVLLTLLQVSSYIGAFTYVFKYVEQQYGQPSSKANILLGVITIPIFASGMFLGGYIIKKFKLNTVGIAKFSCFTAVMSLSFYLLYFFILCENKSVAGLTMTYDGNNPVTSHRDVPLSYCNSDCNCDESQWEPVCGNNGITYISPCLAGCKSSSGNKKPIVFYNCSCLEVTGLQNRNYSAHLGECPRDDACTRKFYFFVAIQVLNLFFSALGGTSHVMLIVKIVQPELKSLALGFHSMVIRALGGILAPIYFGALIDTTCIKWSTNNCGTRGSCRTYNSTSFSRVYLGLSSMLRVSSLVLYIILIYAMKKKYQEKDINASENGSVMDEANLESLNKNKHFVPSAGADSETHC
Method: as §2, §3, §4, §5

OATP1B1 [7] = target: T2, OATP1B1; assay: Inhibition of OATP1B1-mediated valsartan uptake in HEK293-OATP1B1 cells; assay type: cell-based; set-up: host or cells: HEK293; settings: 5 μM valsartan, 5 min
Method: as §1

- unbound concentration of rifampin [2]: 4.7 to 22.9 µM
- IC50 (OATP1B3 [3]): 3.6 µM
- IC50 (OATP1B3 [4]): 0.81 µM
- IC50 (OATP1B1 [6]): 28.6 µM
- IC50 (OATP1B1 [7]): 13.8 µM
SMILES: CO[C@H]1/C=C/O[C@@]2(C)Oc3c(C)c(O)c4c(O)c(c(/C=N/N5CCN(C)CC5)c(O)c4c3C2=O)NC(=O)/C(C)=C\C=C\[C@H](C)[C@H](O)[C@@H](C)[C@@H](O)[C@@H](C)[C@H](OC(C)=O)[C@@H]1C [Rifampin, rifampin, reference compound]
- protein binding of rifampin [1]: 23.1%
- Cmax of rifampin ([5]; oral rifampin 20 mg/kg ref 23, 39, 40): 15700 to 24500 ng/mL
- plasma concentration of rifampin ([5]; oral rifampin 20 mg/kg, for 12 h ref 23, 39, 40): over 5 μg/mL
